The values that follow come from PMC9154192 (PLoS Biology, 2022).

The structures appear in SMILES notation. ≈ marks a conversion by molar mass, not a printed value. Read-outs that look alike come from different tables or passages of the source. Some results are limits rather than exact numbers.

Series [1] deals with A549 cell line. Conditions: cited from earlier work.
The subject of series [2] is M. tuberculosis H37Ra. Kind of series: microbe, parasite or virus in culture. The series is classed as cell-based, Mycobacterium tuberculosis.
In series [3] the test system is M. tuberculosis H37Rv. Kind of series: microbe, parasite or virus in culture. The series is classed as cell-based, Mycobacterium tuberculosis. Conditions: for SI (CC50/MIC): ratio of CC50 for L929 fibroblasts to MIC for strain H37Rv.
Series [4] concerns Murine Raw 264.7 macrophages. In words: in vitro. It counts as cell-based. The settings on record: RAW, MTT assay (Table S1). The method, then: (§1) A549 human pulmonary epithelial cells (KCLB 10185), human embryonic kidney (HEK) 293 cells (KCLB 21573), human THP-1 leukemia cells (KCLB 40202), human neuroblastoma SH-SY5Y cells (KCLB 22266), Murine Raw 264.7 macrophages (KCLB 40071), and L929 murine fibroblasts (KCLB 10001) were purchased from the KCLB (Seoul, Korea). Cytotoxicity testing was performed using the MTT assay and the WST-1 cell viability assay as previously described.
In general terms: Formazan colour is commonly taken as a measure of viable cells.

The test system of series [5] is L929 murine fibroblasts. Kind of series: in vitro. It counts as cell-based. Conditions: L929, MTT assay (Table S1). On the procedure:
as §1

In series [6] the test system is M. bolletii. Kind of series: microbe, parasite or virus in culture. Conditions: Mycobacteroides abscessus. The series is classed as cell-based, Mycobacterium bolletii.
The subject of series [7] is M. fortuitum. Kind of series: microbe, parasite or virus in culture. The settings on record: Mycolicibacterium fortuitum. The series is classed as cell-based, Mycobacterium fortuitum.
The subject of series [8] is M. goodie. In words: microbe, parasite or virus in culture. It counts as cell-based. Conditions: Mycobacterium.
Series [9] deals with M. gordonae. In words: microbe, parasite or virus in culture. The series is classed as cell-based. The settings on record: Mycobacterium gordonae.
For series [10], the system named is M. kansasii. In words: microbe, parasite or virus in culture. The series is classed as cell-based. The settings on record: Mycobacterium kansasii.
The subject of series [11] is M. szulgai. In words: microbe, parasite or virus in culture. It counts as cell-based. The settings on record: Mycobacterium szulgai.
The subject of series [12] is M. abscessus. In words: microbe, parasite or virus in culture. The series is classed as cell-based, Mycobacterium abscessus. Conditions: Mycobacteroides abscessus.
Series [13] has as its system M. kyorinense. In words: microbe, parasite or virus in culture. It counts as cell-based. Conditions: Mycobacterium kyorinense.
For series [14], the system named is M. intracellulare. Kind of series: microbe, parasite or virus in culture. The series is classed as cell-based. Conditions: Mycobacterium intracellulare.
In series [15] the test system is M. marinum. In words: microbe, parasite or virus in culture. The series is classed as cell-based. Conditions: Mycobacterium marinum.
Series [16] has as its system clinically isolated MDR, XDR, and TDR M. tuberculosis strains. Kind of series: microbe, parasite or virus in culture. It counts as cell-based. Conditions: Mycobacterium tuberculosis.
Series [17] relates to M. avium. In words: microbe, parasite or virus in culture. Conditions: Mycobacterium avium. It counts as cell-based.
In series [18] the test system is M. marseiliense. In words: microbe, parasite or virus in culture. It counts as cell-based. The settings on record: Mycobacterium.
The test system of series [19] is M. colombiense. Kind of series: microbe, parasite or virus in culture. The settings on record: Mycobacterium colombiense. It counts as cell-based.
Series [20] concerns M. aubagnense. Kind of series: microbe, parasite or virus in culture. It counts as cell-based, Mycobacterium aubagnense. Conditions: Mycolicibacterium aubagnense.
The test system of series [21] is M. arupense. In words: microbe, parasite or virus in culture. It counts as cell-based, Mycobacterium arupense. Conditions: Mycolicibacter arupensis.
Series [22] relates to M. peregrinum. In words: microbe, parasite or virus in culture. The series is classed as cell-based, Mycobacterium peregrinum. Conditions: Mycolicibacterium peregrinum.
Series [23] concerns M. smegmatis. Kind of series: microbe, parasite or virus in culture. It counts as cell-based, Mycobacterium smegmatis. The settings on record: Mycolicibacterium smegmatis.
The subject of series [24] is M. phocaicum. In words: microbe, parasite or virus in culture. It counts as cell-based, Mycobacterium phocaicum. The settings on record: Mycolicibacterium phocaicum.
Series [25] deals with M. bovis. Kind of series: microbe, parasite or virus in culture. It counts as cell-based. Conditions: Mycobacterium tuberculosis variant bovis.
In series [26] the test system is M. neoaurum. Kind of series: microbe, parasite or virus in culture. The series is classed as cell-based, Mycobacterium neoaurum. Conditions: Mycolicibacterium neoaurum.
In series [27] the test system is M. conceptionense. Kind of series: microbe, parasite or virus in culture. The series is classed as cell-based, Mycobacterium conceptionense. Conditions: Mycolicibacterium senegalense.
For series [28], the system named is M. phlei. In words: microbe, parasite or virus in culture. The series is classed as cell-based, Mycobacterium phlei. Conditions: Mycolicibacterium phlei.
Series [29] has as its system M. chitae. In words: microbe, parasite or virus in culture. The series is classed as cell-based, Mycobacterium chitae. Conditions: Mycolicibacterium chitae.
In series [30] the test system is M. gilvum. Kind of series: microbe, parasite or virus in culture. The series is classed as cell-based, Mycobacterium gilvum. The settings on record: Mycolicibacterium gilvum.
Series [31] relates to M. massiliense. Kind of series: microbe, parasite or virus in culture. The series is classed as cell-based, Mycobacterium massiliense. The settings on record: Mycobacteroides abscessus.
Series [32] has as its system M. xenopi. Kind of series: microbe, parasite or virus in culture. It counts as cell-based. Conditions: Mycobacterium xenopi.
Series [33] relates to M. heraklionease. Kind of series: microbe, parasite or virus in culture. It counts as cell-based. The settings on record: Mycobacterium.

As for `COc1ccc2c3c(c4cc(OC)c(OC)cc4c2c1)CN1CCC[C@H]1C3` [DPG, deoxypergularinine], the CC50 (in general, the concentration giving 50% cytotoxicity) in series [1] is 18.7 µg/mL (≈ 51.5 µM).
As to `COc1ccc(/C(=C\c2ccc(OCc3ccccc3)cc2)C(=O)O)cc1OC` [DPGA2], the MIC in series [2] is 100 µg/mL (≈ 256 µM); in series [3], more than 100 µg/mL. In addition, the CC50 in [4] and in [5] was more than 100 µg/mL throughout.
Consider `COC(=O)/C(=C/c1ccc(OCc2ccccc2)cc1)c1ccc(OC)c(OC)c1` [DPGA3], for which the MIC in series [2] and in series [3] was 3.1 µg/mL (≈ 7.66 µM) each time. In addition, in series [3], the “SI (CC50/MIC)” value is on record as more than 32.2. Also, the CC50 in [4] and in series [5] was more than 100 µg/mL in each case.
Regarding `CCCCOc1ccc(/C=C(/C(=O)O)c2ccc(OC)c(OC)c2)cc1` [DPGA8], the MIC in [2] and in series [3] was more than 100 µg/mL each time. For the same compound, the “SI (CC50/MIC)” value in series [3] is reported as less than 0.9. For the same compound, the CC50 was more than 100 µg/mL in series [4] and 89.5 µg/mL (≈ 251 µM) in series [5].
`CCCCOc1ccc(/C=C(/C(=O)OC)c2ccc(OC)c(OC)c2)cc1` [DPGA9]: the MIC in [2] and in series [3] was 25 µg/mL (≈ 67.5 µM) throughout. Moreover, in [3], the “SI (CC50/MIC)” value was more than 4.0. Moreover, the CC50 in series [4] and in [5] was more than 100 µg/mL each time.
With `NC(=O)c1cnccn1` [PZA, pyrazinamide], the MIC in [6], in [7], in series [8], in [9], in [10] and in series [11] was more than 100 µg/mL each time. For the same compound, the MIC in [12] was more than 100 µg/mL; in series [13], more than 100 µg/mL; in series [14], more than 100 µg/mL; in [3] (Mycobacterium tuberculosis, H37RV, read-out: MIC), more than 100 µg/mL; in series [15], more than 100 µg/mL; in series [16], more than 100 µg/mL. Besides, the MIC in [16] (TDR-1), in [16] (TDR-2), in series [16] (TDR-3), in series [17], in series [18] and in series [19] was more than 100 µg/mL in each case. For the same compound, the MIC in [20], in series [21], in series [22], in series [23], in [24] and in series [25] was more than 100 µg/mL each time. The MIC in series [26], in series [27], in [28], in series [29], in series [30] and in [31] was more than 100 µg/mL each time. The MIC in series [32] and in series [33] was more than 100 µg/mL in each case.
